Experimental findings from patent US7465730B2, “Treatment of neuropathic pain with 6H-pyrrolo[3,4-d]pyridazine compounds” (Merck & Co. Inc., priority 2002, dated 2008) are described below.

For this assay, the system named is nerve injury-induced tactile allodynia. Kind of assay: Spinal nerve ligation model (Chung model) of neuropathic pain. Type of assay: in vivo, Male Sprague Dawley rats. The conditions noted are these: rat. The source says: The spinal nerve ligation model of neuropathic pain was used to assess the effects of test compounds on nerve injury-induced tactile allodynia (S. H. Kim and J. M. Chung, Pain 50:355-363(1992)). Male Sprague Dawley rats (175-200 g) received unilateral tight ligation of the left L5/L6 spinal nerves distal to the dorsal root ganglion using 4-0 silk suture. Behavioral-nociceptive testing occurred 7-14 days following spinal nerve ligation by placing the rats in chambers on a wire mesh. Rats were tested for tactile allodynia (decreased hindpaw withdrawal threshold to non-noxious punctate stimulation) by applying a series of calibrated von Frey filaments to the plantar aspect of the left hindpaw ipsilateral to the site of nerve injury. The mean 50% hindpaw withdrawal threshold (g.) was determined using the Dixon “up-down” non-parametric test (Chaplan et al., J. Neurosci. Methods, 53:55-63(1994)). […] Following determination of pre-drug withdrawal thresholds, rats received either an i.p. or p.o. injection of test compound. The effect of the test compound on tactile allodynia was determined over time by measuring hindpaw withdrawal thresholds 30, 60, 90, 120 min post-injection. In above model, EXAMPLE 1 produced a 65% effect after i.p. dosing at 30 mg/kg, EXAMPLE 50 produced a 100% effect after i.p. dosing at 20 mg/kg, EXAMPLE 115 produced a 60% effect after i.p. dosing at 30 mg/kg i.p.

Consider `CCOc1ccc(-n2c(C)c3c(C)nnc(-c4ccc(OC)cc4)c3c2C)cc1` [EXAMPLE 1, 6-(4-ethoxyphenyl)-1-(4-methoxyphenyl)-4,5,7-trimethyl-6H-pyrrolo[3,4-d]pyridazine], for which the “effect on tactile allodynia (hindpaw withdrawal threshold)” value (from here on “effect on tactile allodynia”) (i.p. dosing at 30 mg/kg) turned out to be 65%.
On to `CCOc1ccc(-n2c(C)c3c(C)nnc(C)c3c2C)cc1` [EXAMPLE 50, 6-(4-ethoxyphenyl)-1,4,5,7-tetramethyl-6H-pyrrolo[3,4-d]pyridazine], for which, under “i.p. dosing at 20 mg/kg”, the “effect on tactile allodynia” value is given as 100%.
For `CCOc1ccc(-n2c(C)c3c(C)nnc(NC4CCc5ccccc54)c3c2C)c(OC)c1` (stereo not drawn) [EXAMPLE 115, N-(2,3-dihydro-1H-inden-1-yl)-6-(4-ethoxy-2-methoxyphenyl)-4,5,7-trimethyl-6H-pyrrolo[3,4-d]pyridazin-1-amine], the “effect on tactile allodynia” value (i.p. dosing at 30 mg/kg) turned out to be 60%.
